Literature values, collected in patent US20180368457A1 (Petiva Private Limited, priority 2015, published 2018).

Columns and labels:
[1] = storage temperature 25° C., relative humidity approximately 85%
[2] = in vivo
[3] = intravenously administered, within 6 hours of treatment

Row | water pick-up on storage [1] | Compound | glycemic index, in words [2] | solubility | excreted in the urine [3]
1 | No significant water pick-up | OCC1O[C@H](OC[C@H]2O[C@](O)(CO)C(O)C2O)C(O)C(O)[C@@H]1O (stereo partly shown) [isomaltulose, Isomaltulose] | very low GI |  | 
2 |  | O=C(CO)[C@H](O)[C@H](O)[C@H](O)CO [allulose, D-Psicose] | low glycemic index | high solubility | approximately 98%
3 |  | OC[C@H]1O[C@](O)(CO[C@H]2O[C@H](CO)[C@@H](O)[C@H](O)[C@H]2O)[C@@H](O)[C@@H]1O [trehalulose, 1-O-α-D-glucopyranosyl-β-D-fructofuranose] | less glycemic | more soluble in water than its structural isomers sucrose | 
